Patent US6989377B2, “Treating vitamin D responsive diseases” (priority 1999, dated 2006)
Marks after values point to notes of the source that are not given here.

How the values were obtained:
Assay type in all cases: in vivo, mouse
[1] = system: DSS-induced colitis in 129X1/SvJ male mice; test: Treatment at the first signs of DSS-induced colitis in 129X1/SvJ mice; conditions: 50 ng/d from day 4 of 1% DSS
Text: The 129×1/SvJ strain is genetically similar to the 129/Ola strain and to the 129/SvPas strain, which is less susceptible to DSS-induced colitis than C3H/HeJ.

[2] = system: DS-induced colitis in C3H/HeJ male mice; test: Calcitriol prevention of DS-induced colitis
Protocol: Fecal hemoglobin was analyzed in the mice to determine bleeding from a breached intestinal barrier. […] Co., Needham Heights, Mass.), the supernatants were decanted into fresh tubes and stored frozen at -20° C. Hemoglobin in the supernatants was analyzed by a method adapted from Saitoh et al., Digestion, 56:67-75, 1995, and Liem et al., Anal. Biochem., 98:388-393, 1979, with rat hemoglobin as standard (Sigma-Aldrich). The supernatants were diluted 1:25 in TBS. […] The reaction was stopped with 100 μL of 2 M phosphoric acid, and the absorbance at 450 nm was measured with an MRX Revelation Microplate Reader (DYNEX Technologies). […] The mice were euthanized with an i.p. injection of pentobarbital. […] The fixed tissue was embedded in paraffin, sectioned at 6 μm, stained with hematoxylin and eosin, and examined by light microscopy. Scoring was conducted by a veterinary pathologist in blinded fashion. […] Clin. Invest., 98:1010-1020, 1996. The scores were summed to provide a total colitis score for each mouse. […] In particular, age-matched C3H/HeJ male mice were fed a synthetic diet (see Example 6) with or without calcitriol or prednisolone for one week. […] The mice were weighed every 3-4 days thereafter. […] Serum and colon tissue were collected on day 28. Most assays were performed as described in Example 6, and the terminal serum calcium assay was performed as described below. […] The serum was decanted and stored frozen at -20° C. The samples, standards, and buffer blanks (2 μL each) were aliquoted into duplicate wells of a 96-well plate. Calcium reagent working solution (0.25 mL), prepared according to the manufacturer's directions (Sigma Diagnostics, St. Louis, Mo.), was added to each well, and the absorbance at 570 nm was measured.

[3] = system: DS-induced colitis in C3H/HeJ male mice; test: Calcitriol prevention of DS-induced colitis; conditions: 50 ng/day in diet from day −7; 1% DS days 0 to 5; terminated day 27
male C3H/HeJ mice = test: DS-induced colitis model in mice (weight, mortality, fecal hemoglobin, colon histopathology); conditions: for Colon Histopathology (sum): total colitis score 0 to 16
Text: This Example describes the generation of a mouse model for dextran sulfate (DS) induced colitis. This DS-induced colitis model was adapted from Okayasu et al. (1990) for use with a synthetic diet. In this Example, male C3H/HeJ mice were used, as these mice are highly susceptible to DS-induced colitis. Initially, mice were given 3.5% DS w/v in acidified water for 5 days, followed by acidified water without DS, and continuously fed a synthetic diet (synthetic diet described in Smith and Hayes, PNAS, USA, 84:5878-5882, 1987). […] These mice shunned the water containing DS, and met their hydration needs by consuming the synthetic diet (which is approximately 60% water by weight). A second group of mice were given 3.5% DS w/v in acidified water for 5 days, followed by acidified water without DS, and continuously fed laboratory chow (Purina mouse chow #5008) as described in Mahler et al., Gastrointest, Liver Physiol., 37:G544-G551 (1996). These mice, consuming an average of 0.57 g DS/mouse, lost weight (controls 26.1±0.7 g; DS group 22.8±0.3 g), and had hemoglobin (Hg) in the stool (controls 0±0 mg Hg/g stool; DS group 11.4 mg Hg/g stool).
To adapt the DS-induced model for use with the synthetic diet (see Smith and Hayes, 1987), a third group of mice were given graded amounts of DS in acidified water and a synthetic diet for 5 days, followed by acidified water and the synthetic diet without DS. These mice were weighed twice weekly and subjected to various other assays, including: fecal hemoglobin analysis, and histopathologic analysis. The results are presented below in Tables 2 and 3.
Fecal hemoglobin was analyzed in the mice to determine bleeding from a breached intestinal barrier. Fresh stool samples were collected from individual mice, dried overnight, weighed, and suspended in 0.5 mL of TRIS-buffered saline (TBS; 25 mM TRIS, 0.15 M NaCl, pH 7.6). The stool samples were centrifuged (10,000×g for 10 min) at room temperature in a Micromax centrifuge (International Equip. Co., Needham Heights, Mass.), the supernatants were decanted into fresh tubes and stored frozen at −20° C. Hemoglobin in the supernatants was analyzed by a method adapted from Saitoh et al., Digestion, 56:67-75, 1995, and Liem et al., Anal. Biochem., 98:388-393, 1979, with rat hemoglobin as standard (Sigma-Aldrich). The supernatants were diluted 1:25 in TBS. The assay was done in round-bottom, polystyrene, 96 well microtiterplates (#3555, DYNEX Technologies, Chantily, Va.). The samples, standards, and buffer blanks (20 μL each) were incubated in duplicate for 10 min with 100 μL of a substrate solution made with 9 volumes 3,3′5,5′-tetramethylbenzidine dihydrochloride peroxide solution (Turbo TMB-ELISA, Pierce Chemical Co., Rockford, Ill.) and 1 volume of hydrogen peroxide solution (Stable Peroxide Substrate Buffer, Pierce Chemical Co.). The reaction was stopped with 100 μL of 2 M phosphoric acid, and the absorbance at 450 nm was measured with an MRX Revelation Microplate Reader (DYNEX Technologies). The fecal hemoglobin assay working range was 1 to 100 μg/mL sample.
The mice were euthanized with an i.p. injection of pentobarbital. The cecal and rectal GI tract segments were collected, cut longitudinally, flushed with 10% neutral-buffered formalin, arranged in a spiral pattern in a cassette, and fixed in formalin. The fixed tissue was embedded in paraffin, sectioned at 6 μm, stained with hematoxylin and eosin, and examined by light microscopy. Scoring was conducted by a veterinary pathologist in blinded fashion. Each colon segment (proximal, medial, and distal colon, and rectum) was given a score from 0 to 4, based on the criteria described by Berg et al., J. Clin. Invest., 98:1010-1020, 1996. The scores were summed to provide a total colitis score for each mouse. The total colitis score could range from 0 (no pathology in any segment) to 16 (grade 4 lesions in all colon segments).

[4] = 1% DS in drinking water and synthetic diet, days 0 to 5
[5] = 1.5% DS in drinking water and synthetic diet, days 0 to 5
[6] = 2.0% DS in drinking water and synthetic diet, days 0 to 5
[7] = 3.0% DS in drinking water, laboratory chow

In the case of `C[C@]12C=CC(=O)C=C1CC[C@@H]1[C@@H]2[C@@H](O)C[C@@]2(C)[C@H]1CC[C@]2(O)C(=O)CO` [Prednisolone, prednisolone], the “Colon Histopathology, Distal colon” value [1] is reported as 2.0 ± 0.3, the “Colon Histopathology, Middle colon” value [1] is reported as 0.2 ± 0.3 and the “Colon Histopathology, Rectum + anus” value [1] is reported as 0.8 ± 1.1. The “Colon histopathology, Proximal colon” value [1] was 0.7 ± 0.4, the “Colon histopathology, Sum” value [1] was 3.7 ± 1.3 and the “Peak fecal hemoglobin” value ([1]; 1 cycle, terminated 21 days later) was 0.4 ± 0.6 mg/g. For the same compound, the “Terminal Serum Ca” value ([1]; terminated 21 days later) was 8.3 ± 1.3 mg/dL, the “Terminal weight” value ([1]; terminated 21 days later) was 26.5 ± 02.0 g and the “Peak Hg in Stool” value ([2]; 50 ng/day in diet from day −7, 1% DS days 0 to 5) was 12.3 ± 10.0 mg/g. For the same compound, the “Terminal serum Ca++” value ([2]; 50 ng/day in diet from day −7, 1% DS days 0 to 5, terminated day 27) was 10.5 ± 1.2 mg/dL, the “Colon Histopathology, Distal colon” value ([2]; 50 ng/day, 1% DS, score 0 to 4) was 1.1 ± 0.4 and the “Colon histopathology, Medial colon” value ([2]; 50 ng/day, 1% DS, score 0 to 4) was 0.3 ± 0.5. The “Colon histopathology, Proximal colon” value ([2]; 50 ng/day, 1% DS, score 0 to 4) was 1.0 ± 0, the “Colon histopathology, Rectum” value ([2]; 50 ng/day, 1% DS, score 0 to 4) was 2.9 ± 1.1 and the “Colon histopathology, Sum” value ([2]; 50 ng/day, 1% DS, total score 0 to 16) was 5.3 ± 1.4. For the same compound, the “Terminal weight” value [3] was 29.4 ± 1.4 g.
In the case of dextran sulfate [DS], the “Weight change (%, day 0-11)” value (male C3H/HeJ mice; 1% DS in acidified drinking water and synthetic diet, days 0 to 5) is reported as 2.1 ± 0.9%, the “Mortality (%)” value (male C3H/HeJ mice; [4]) is reported as 0% and the “Peak Hg in Stool” value (male C3H/HeJ mice; [4]) is reported as 1.8 mg/g. The “Colon Histopathology (sum)” value (male C3H/HeJ mice; 1% DS in drinking water and synthetic diet) was 6.3 ± 3.5, the “Mortality (%)” value (male C3H/HeJ mice; [5]) was 66% and the “Peak Hg in Stool” value (male C3H/HeJ mice; [5]) was 16.7 mg/g. The “Weight change (%, day 0-11)” value (male C3H/HeJ mice; [5]) was −12.4 ± 0.7%, the “Colon Histopathology (sum)” value (male C3H/HeJ mice; 1.5% DS in drinking water and synthetic diet) was 6.5 and the “Mortality (%)” value (male C3H/HeJ mice; [6]) was 100%. For the same compound, the “Peak Hg in Stool” value (male C3H/HeJ mice; [6]) was 31.7 mg/g, the “Weight change (%, day 0-11)” value (male C3H/HeJ mice; 2.0% DS in drinking water and synthetic diet, weight change day 0 to 6, when mortality reached 100%) was −17.5 ± 0.2^b % and the “Mortality (%)” value (male C3H/HeJ mice; [7]) was 0%. For the same compound, the “Peak Hg in Stool” value (male C3H/HeJ mice; [7]) was 11.4 mg/g, the “Weight change (%, day 0-11)” value (male C3H/HeJ mice; [7]) was −5.4% and the “Colon Histopathology (sum)” value (male C3H/HeJ mice; [7]) was 9.5 ± 0.9. The “Hemoglobin (Hg) in the stool” value (male C3H/HeJ mice; 3.5% DS w/v in acidified water for 5 days, laboratory chow) was 11.4 mg Hg/g stool, the Body weight (male C3H/HeJ mice; 3.5% DS w/v in acidified water for 5 days, laboratory chow, controls 26.1±0.7 g) was 22.8 ± 0.3 g and the “Signs of colitis (diarrhea, blood in the stool, weight loss)” value (male C3H/HeJ mice; 3.5% DS w/v in acidified water for 5 days, synthetic diet (mice shunned the DS water)) was “no signs of colitis”.
